These results are taken from patent US8158170B2 (SNU R&DB Foundation, priority 2006, dated 2012).

Assay [1] relates to acetyl-CoA carboxylase (ACC). The conditions noted are these: activity decreased due to alcohol intake; oral daily for the last week, alone or concurrently; FIG. 9.
Description: (§1) Sodium dodecyl sulfate-polyacrylamide gel electrophoresis (SDS-PAGE) was carried out using Mighty Small II SE 250 apparatus according to the Laemmli UK method (1970). Lysis fraction of liver tissue was diluted in a sample dilution buffer [63 mM Tris (pH 6.8), 10% glycerol, 2% SDS, 0.0013% bromophenol blue, 5% β-mercaptoethanol] and electrophoresis was performed in an electrode buffer (15 g of Tris, 72 g of glycine and 5 g of SDS in 1 L) using 7.5% and 9% gel. After electrophoresis, proteins were transferred to nitrocellulose paper at 190 mAmps for a duration of 1 hour, using a transfer buffer [25 mM Tris, 192 mM glycine, 20% v/v methanol (pH 8.3)]. Anti-fatty acid synthase, anti-iNOS, anti-phospho AMPK-α anti-phospho ACC, anti-Fox01, anti-Fox03 and anti-CYP2E1 were reacted as primary antibodies. […] Change in the expression of proteins was analyzed by determining the color intensity of blots through densitometry. […]
(§2) The levels of AMPK (AMP-activated protein kinase), a critical enzyme involved in the oxidation of fatty acid, and phosphate form of ACC (acetyl-CoA carboxylase), a substrate of AMPK, in the liver tissue taken in Example 1 were analyzed by Western blotting.
The subject of assay [2] is fatty acid synthase (FAS). Nature of the assay: Expression of FAS in liver tissue by Western blotting. It is filed as in vivo, rats. The note with it: expression decreased by chronic alcohol intake; oral daily for the last week, alone at high dose or concurrently; FIG. 5. The text has this:
The decreased expression of FAS was not restored by the administration of metadoxine or garlic oil alone at high dose.

Assay [3] has as its system AMP-activated protein kinase (AMPK). Briefly: Activity (phospho level) of AMPK in liver tissue by Western blotting. It is filed as in vivo, rats. The note with it: activity decreased due to alcohol intake; oral daily for the last week, alone or concurrently; FIG. 8.
Description: as §1, §2
For assay [4], the system named is inducible nitric oxide synthase (iNOS). Nature of the assay: Expression of iNOS in liver tissue by Western blotting. It is filed as in vivo, rats. The note with it: expression strongly induced by chronic alcohol intake; oral daily for the last week, alone or concurrently; FIG. 7. An excerpt: iNOS is an enzyme strongly inducing inflammation in liver tissue. The induction of the expression of iNOS is considered as a primary mechanism of alcohol-induced liver damage (Mckim, et al., Gastroenterology 125:1834-1844, 2003; and Venkatraman A, et al., Hepatology 40: 565-573, 2004).

Consider `Cc1ncc(CO)c(CO)c1O.O=C1CCC(C(=O)O)N1` [metadoxine, pyridoxol 1-2-pyrrolidone-5-carboxylate], for which, in assay [1], the “activity of ACC in liver tissue” value is reported as “no change”. In addition, in assay [2], the “expression of fatty acid synthase (FAS) in liver tissue” value was “not restored”. Further, in assay [3], the “activity of AMPK in liver tissue” value was “no change”. In addition, in assay [4], the “expression of iNOS in liver tissue” value is “decreased”.
